Results: patent publication US20240366555A1, “SELECTIVE MTORC2 INHIBITOR AND USES THEREOF” (ALIAD BIOPHARMA, priority 2021, published 2024)

What was measured:
Pten KO mice = assay: Passive avoidance test in Pten KO mice; type: in vivo; details: FIG. 1b
Experimental: As Pten KO mice, Ptenf/f_cre/cre KO mice or Ptenf/f_cre/++ Het mice (KD) were obtained by mating Pten floxed/floxed mice and CAMKII-cre mice. DMSO or athyriol was intraperitoneally injected at 5 or 10 mg/kg for 2 weeks from the age of mice of 6 weeks, and a behavioral test was performed in 7 days after administration. Pten floxed/floxed mice were used as littermates of the same age as a normal control group.
A passive avoidance test was performed as described in Heo et al. (J. Ethnopharmacol. (2009) 122:20-27). After training the avoidance action by strong light three times a day, an electric foot shock (1 mA, 300 g test) was applied for 3 seconds in a dark room at the same time on the next day. After placing white mice in the same room in 24 hours after applying the shock, an avoidance response by light, that is, the time to move from a bright room to a dark room was measured, and it was dataficated for each group. Exactly after 24 hours of adaptation training, the mice were put back into the bright room and the latency time required to enter the dark room was measured for 720 seconds.

[1] = system: CYFIP1-overexpressing hippocampal neurons; assay: Excessive dendritic arborization in CYFIP1-overexpressing primary hippocampal neurons; type: cell-based, rat
Excerpt: Neural stem cells were primarily cultured from the hippocampal vestigial region of white mouse E16 embryos, and CYFIP1, which was found as a gene causing autism spectrum disorder, was introduced by transfection and overexpressed. When the neural stem cells in which CYFIP1 was overexpressed were differentiated, the neurite length and branch number increased compared to the normal cell, the number of dendritic spine increased, and morphological changes such as an increase in rod-shaped dendritic spines with a size of 0.6 μm or more, which are larger than the normal size, were accompanied. Therefore, CYFIP1 overexpression was used as a culture cell model of autism.
By treating norathyriol to the differentiating neural stem cells exogenously overexpressing CYFIP1, the effect of norathyriol on excessive dendritic arborization generated by CYFIP1 overexpression was investigated. By immunofluorescent staining method using an antibody against pan-neurofilament and an antibody against PSD (post-synaptic density)-95, which was expressed in the post-synaptic dendrite of synapses, the neurite length and dendritic spine number were measured and quantified. In addition, by DAPI staining, the nuclei of the neural cells were visualized.
Hippocampus-derived neural progenitor cells were isolated from the forebrain of E16 mouse embryos. SD-rat gestational age 16-day mice (Orient Bio) were purchased and the mice were anesthetized with CO2 deeply, and then the embryos were taken out. The embryos were immersed in Ca^2+/Mg^2+-free HBSS (Invitrogen) and the forebrain was isolated using a sterile injection needle under a dissecting microscope. While changing HBSS, the forebrain was separated into the left and right hemispheres using a forcep, and meninges were peeled off, and then the hippocampal eminence was separated. After washing the separated and collected tissue with cold N2 culture medium twice, 37° C. N2 culture medium was added and cells were slowly and mechanically isolated using a pipette. As the pipette, a Pasteur pipette coated with 1% BSA was used after making the pipette narrow and soft in diameter by firing the tip. After waiting for 3 minutes to allow undissolved tissue or vascular cells to settle, the supernatant was carefully taken as dissolved cells. These tissues were collected and mechanically isolated with the pipette in Ca^2+/Mg^2+-free HBSS (Invitrogen) buffer. The cells were seeded at 19,000 cells/cm^2 in a 35 mm culture dish coated with 15 μg/ml poly-L-ornithine and 1 μg/ml fibronectin (Sigma), and cultured using a serum-free N2 medium (medium for proliferation) in which 10 ng/mL bFGF (Invitrogen) was added under a condition of 5% CO2. […]

Structure (SMILES): COc1cc(O)c2c(=O)c3cc(O)c(O)cc3oc2c1 [athyriol, 1,6,7-Trihydroxy-3-methoxy-9H-xanthen-9-on]
- memory ability in passive avoidance test (Pten KO mice; 5 mg/kg): rather more excellent than the control group
- memory ability in passive avoidance test, level relative to control group (Pten KO mice; 10 mg/kg, % of the control group): 89%

Structure (SMILES): O=c1c2cc(O)c(O)cc2oc2cc(O)cc(O)c12 [norathyriol, 1,3,6,7-tetrahydroxy-9H-xanthen-9-one]
- reduction of number of dendritic spines per unit neurite length ([1]; 50 nM and 100 nM, on average, FIG. 10b): ≤ 50%
- number of dendritic spines in primary branching neurites ([1]; FIG. 10b): reduced by norathyriol in a similar tendency
- number of dendritic spines per cell ([1]; FIG. 10b): reduced by norathyriol in a similar tendency
- number of dendritic spines per unit neurite length ([1]; from 10 nM, FIG. 10): decrease in the number of dendritic spines was observed
